Reference: ChEMBL document CHEMBL5331108, “Design and Synthesis of 4-Fluorophenyl-5-methylene-2(5H)-furanone Derivatives as Potent Quorum Sensing Inhibitors” (J Med Chem, 2023)
≈ marks a conversion by molar mass, not a printed value. Calls of active or inactive are those of the source. The rule behind the calls is not given here.

Columns and labels:
Bacillus pumilus = assay: Antibacterial activity against penicillin-susceptible Bacillus pumilus CMCC63202 assessed as inhibition of bacterial growth incubated for 20 hrs by CLSI protocol based microdilution method; assay type: functional
Pseudomonas aeruginosa [1] = assay: Antibacterial activity against penicillin-susceptible Pseudomonas aeruginosa ATCC27853 assessed as inhibition of bacterial growth incubated for 20 hrs by CLSI protocol based microdilution method; assay type: functional
Bacillus subtilis = assay: Antibacterial activity against penicillin-susceptible Bacillus subtilis ATCC9372 assessed as inhibition of bacterial growth incubated for 20 hrs by CLSI protocol based microdilution method; assay type: functional
Staphylococcus aureus [2] = assay: Antibacterial activity against methicillin-resistant Staphylococcus aureus ATCC43300 assessed as inhibition of bacterial growth incubated for 20 hrs by CLSI protocol based microdilution method; assay type: functional
Staphylococcus aureus [3] = assay: Antibacterial activity against erthromycin-susceptible Staphylococcus aureus ATCC25923 assessed as inhibition of bacterial growth incubated for 20 hrs by CLSI protocol based microdilution method; assay type: functional
Escherichia coli = assay: Antibacterial activity against penicillin-susceptible Escherichia coli ATCC25922 assessed as inhibition of bacterial growth incubated for 20 hrs by CLSI protocol based microdilution method; assay type: functional
Pseudomonas aeruginosa [4] = assay: Antibacterial activity against wild type Pseudomonas aeruginosa […] CGMCC1.12483 assessed as inhibition of bacterial growth incubated for 20 hrs by CLSI protocol based microdilution method; assay type: functional
Pseudomonas aeruginosa [5] = assay: Antibacterial activity against Pseudomonas aeruginosa 27853 assessed as inhibition of bacterial growth at 256 ug/ml measured after 25 hrs by absorbance based assay; assay type: functional, organism-based; details: dose 256.0 µg/ml
[6] = Inhibition of quorum sensing system in Pseudomonas aeruginosa PAO1 assessed as inhibition of rhamnolipid production at 102.4 ug/ml incubated for 24 hrs by absorbance based assay; details: dose 102.4 µg/ml
[7] = Inhibition of quorum sensing system in Pseudomonas aeruginosa PAO1 assessed as inhibition of pyocyanin production at 102.4 ug/ml incubated for 18 hrs by absorbance based assay; details: dose 102.4 µg/ml
[8] = Inhibition of quorum sensing system in Pseudomonas aeruginosa PAO1 assessed as inhibition of protease activity at 102.4 ug/ml incubated for 24 hrs by absorbance based assay; details: dose 102.4 µg/ml
Pseudomonas aeruginosa [9] = assay: Antibacterial activity against Pseudomonas aeruginosa PAO1 assessed as inhibition of bacterial growth at 256 ug/ml measured after 25 hrs by absorbance based assay; assay type: functional, organism-based; details: dose 256.0 µg/ml
Pseudomonas aeruginosa [10] = assay: Inhibition of biofilm formation in Pseudomonas aeruginosa PAO1 at 32 ug/ml incubated for 20 hrs by crystal violet staining based analysis; assay type: functional; details: dose 32.0 µg/ml

Structure (SMILES) | MIC (Bacillus pumilus) [µg/mL] | MIC (Pseudomonas aeruginosa [1]) [µg/mL] | MIC (Bacillus subtilis) [µg/mL] | MIC (Staphylococcus aureus [2]) [µg/mL] | MIC (Staphylococcus aureus [3]) [µg/mL] | MIC (Escherichia coli) [µg/mL] | MIC (Pseudomonas aeruginosa [4]) [µg/mL] | Activity (Pseudomonas aeruginosa [5]) | inhibition [6] | inhibition [7] | inhibition [8] | Activity (Pseudomonas aeruginosa [9]) | inhibition (Pseudomonas aeruginosa [10])
C=C1OC(=O)C(CNC(=O)c2ccccc2Br)=C1c1ccc(F)cc1 | > 512 | > 512 | 16 (≈ 39.8 µM) | 8 (≈ 19.9 µM) | > 512 | > 512 | > 512 |  |  |  |  |  | 
C=C1C(c2ccc(F)cc2)=C(CNC(=O)c2ccc(C)cc2)C(=O)N1CCC | 512 (≈ 1350 µM) | 256 (≈ 676 µM) | > 512 | > 512 | > 512 | > 512 | 512 (≈ 1350 µM) |  |  |  |  |  | 
C=C1OC(=O)C(CNC(=O)CCCC)=C1c1ccc(F)cc1 | 16 (≈ 52.7 µM) | > 512 | 32 (≈ 105 µM) | 32 (≈ 105 µM) | 4 (≈ 13.2 µM) | > 512 | > 512 |  |  |  |  |  | 
C=C1OC(=O)C(CNC(=O)c2ccc(C)cc2)=C1c1ccccc1 | > 512 | > 512 | > 512 | > 512 | > 512 | > 512 | > 512 |  |  |  |  |  | 
C=C1OC(=O)C(CNC(=O)c2ccccc2Cl)=C1c1ccc(F)cc1 | > 512 | > 512 | > 512 | > 512 | > 512 | > 512 | > 512 |  |  |  |  |  | 
C=C1OC(=O)C(CNC(=O)c2ccc(C)cc2)=C1c1cccc(Cl)c1 | > 512 | > 512 | > 512 | > 512 | > 512 | > 512 | > 512 | inactive | Active | Active | Active | inactive | inactive
O=C1C=C(Br)/C(=C/Br)O1 | 256 (≈ 1010 µM) | 256 (≈ 1010 µM) | 64 (≈ 252 µM) | 128 (≈ 504 µM) | 32 (≈ 126 µM) | 256 (≈ 1010 µM) | 128 (≈ 504 µM) | Active | 44.9% |  |  | Active | Active
C=C1OC(=O)C(CNC(=O)CCCCCCC)=C1c1ccc(F)cc1 | > 512 | > 512 | > 512 | > 512 | > 512 | > 512 | > 512 |  |  |  |  |  | 
C=C1OC(=O)C(CNC(=O)c2cccc(Br)c2)=C1c1ccc(F)cc1 | > 512 | > 512 | > 512 | > 512 | > 512 | > 512 | > 512 |  |  |  |  |  | 
C=C1OC(=O)C(CNC(=O)c2ccc(C)cc2)=C1c1ccc(Br)cc1 | > 512 | > 512 | > 512 | > 512 | > 512 | > 512 | > 512 |  |  |  |  |  | 
C=C1OC(=O)C(CNC(=O)c2ccccc2F)=C1c1ccc(F)cc1 | > 512 | > 512 | > 512 | 128 (≈ 375 µM) | > 512 | > 512 | > 512 |  |  |  |  |  | 
C=C1OC(=O)C(CNC(=O)CC)=C1c1ccc(F)cc1 | 256 (≈ 930 µM) | > 512 | 512 (≈ 1860 µM) | 256 (≈ 930 µM) | 128 (≈ 465 µM) | > 512 | 512 (≈ 1860 µM) |  |  |  |  |  | 
C=C1C(c2ccc(F)cc2)=C(CNC(=O)c2ccc(C)cc2)C(=O)N1CCCC | > 512 | > 512 | > 512 | > 512 | > 512 | > 512 | > 512 |  |  |  |  |  | 
C=C1OC(=O)C(CNC(=O)c2ccc(C)cc2)=C1c1ccc(Cl)cc1 | > 512 | > 512 | > 512 | > 512 | > 512 | > 512 | > 512 |  |  |  |  |  | 
C=C1OC(=O)C(CNC(=O)c2ccccc2OC)=C1c1ccc(F)cc1 | > 512 | > 512 | > 512 | > 512 | > 512 | > 512 | > 512 |  |  |  |  |  | 
C=C1OC(=O)C(CNC(=O)c2ccc(C)cc2)=C1c1cccc(C(F)(F)F)c1 | > 512 | > 512 | > 512 | > 512 | > 512 | > 512 | > 512 |  |  |  |  |  | 
C=C1OC(=O)C(CNC(=O)c2ccc(C)cc2)=C1c1ccccc1Br | > 512 | > 512 | > 512 | > 512 | > 512 | > 512 | > 512 |  |  |  |  |  | 
C=C1OC(=O)C(CNC(=O)c2ccc(C)cc2)=C1c1ccccc1F | > 512 | > 512 | > 512 | > 512 | > 512 | > 512 | > 512 |  |  |  |  |  | 

Structure (SMILES) | MIC (Bacillus pumilus) [µg/mL] | MIC (Pseudomonas aeruginosa [1]) [µg/mL] | MIC (Bacillus subtilis) [µg/mL] | MIC (Staphylococcus aureus [2]) [µg/mL] | MIC (Staphylococcus aureus [3]) [µg/mL] | MIC (Escherichia coli) [µg/mL] | MIC (Pseudomonas aeruginosa [4]) [µg/mL] | Activity (Pseudomonas aeruginosa [5]) | inhibition [6] | inhibition [7] | inhibition [8] | Activity (Pseudomonas aeruginosa [9]) | inhibition (Pseudomonas aeruginosa [10])
C=C1OC(=O)C(CNC(=O)CCCCCCCCCCC)=C1c1ccc(F)cc1 | > 512 | > 512 | > 512 | > 512 | > 512 | > 512 | > 512 | inactive | Active | 36.5% | Active | inactive | Active
C=C1OC(=O)C(CNC(=O)c2ccc(C)cc2)=C1c1ccccc1Cl | > 512 | > 512 | > 512 | > 512 | > 512 | > 512 | > 512 |  |  |  |  |  | 
C=C1OC(=O)C(CNC(=O)c2ccc(C)cc2)=C1c1cccc(Br)c1 | > 512 | > 512 | > 512 | > 512 | > 512 | > 512 | > 512 |  |  |  |  |  | 
C=C1OC(=O)C(CNC(=O)CCCCCCCCC)=C1c1ccc(F)cc1 | > 512 | > 512 | > 512 | 512 (≈ 1370 µM) | > 512 | > 512 | > 512 |  |  |  |  |  | 
C=C1C(c2ccc(F)cc2)=C(CNC(=O)c2ccc(C)cc2)C(=O)N1c1cccc(Cl)c1 | 512 (≈ 1150 µM) | > 512 | > 512 | > 512 | > 512 | > 512 | 512 (≈ 1150 µM) |  |  |  |  |  | 
C=C1C(c2ccc(F)cc2)=C(CNC(=O)c2ccc(C)cc2)C(=O)N1c1ccccc1Cl | 512 (≈ 1150 µM) | > 512 | > 512 | > 512 | > 512 | > 512 | 512 (≈ 1150 µM) |  |  |  |  |  | 
C=C1OC(=O)C(CNC(=O)Cc2ccccc2)=C1c1ccc(F)cc1 | > 512 | > 512 | > 512 | > 512 | > 512 | > 512 | > 512 |  |  | inactive |  |  | 
C=C1OC(=O)C(CNC(=O)CCc2ccccc2)=C1c1ccc(F)cc1 | > 512 | > 512 | 64 (≈ 182 µM) | 16 (≈ 45.5 µM) | > 512 | > 512 | 512 (≈ 1460 µM) |  |  | inactive |  |  | 
C=C1OC(=O)C(CNC(=O)c2ccc(C)cc2)=C1c1cccc(F)c1 | > 512 | > 512 | > 512 | > 512 | > 512 | > 512 | > 512 |  |  |  |  |  | 
C=C1C(c2ccc(F)cc2)=C(CNC(=O)c2ccc(C)cc2)C(=O)N1CCCCC | 512 (≈ 1260 µM) | > 512 | > 512 | > 512 | > 512 | > 512 | 512 (≈ 1260 µM) |  |  |  |  |  | 
C=C1OC(=O)C(CNC(=O)CCCCC)=C1c1ccc(F)cc1 | 256 (≈ 807 µM) | > 512 | 256 (≈ 807 µM) | 256 (≈ 807 µM) | 16 (≈ 50.4 µM) | > 512 | > 512 |  |  |  |  |  | 
C=C1OC(=O)C(CNC(=O)c2ccccc2C)=C1c1ccc(F)cc1 | 32 (≈ 94.9 µM) | > 512 | 128 (≈ 379 µM) | 64 (≈ 190 µM) | 32 (≈ 94.9 µM) | > 512 | > 512 |  |  |  |  |  | 
C=C1OC(=O)C(CNC(=O)c2cccc(F)c2)=C1c1ccc(F)cc1 | > 512 | > 512 | > 512 | > 512 | > 512 | > 512 | > 512 |  |  |  |  |  | 
C=C1C(c2ccc(F)cc2)=C(CNC(=O)c2ccc(C)cc2)C(=O)N1CC | 512 (≈ 1400 µM) | 64 (≈ 176 µM) | > 512 | > 512 | > 512 | > 512 | 512 (≈ 1400 µM) |  |  |  |  |  | 
C=C1OC(=O)C(CNC(=O)CCCCCCCC)=C1c1ccc(F)cc1 | > 512 | > 512 | > 512 | > 512 | > 512 | > 512 | > 512 |  |  |  |  |  | 
C=C1OC(=O)C(CNC(=O)c2ccc(C)cc2)=C1c1ccc(-c2ccccc2)cc1 | > 512 | > 512 | > 512 | > 512 | > 512 | > 512 | > 512 |  |  |  |  |  | 
C=C1C(c2ccc(F)cc2)=C(CNC(=O)c2ccc(C)cc2)C(=O)N1C1CCCC1 | 512 (≈ 1270 µM) | > 512 | > 512 | 512 (≈ 1270 µM) | > 512 | > 512 | 512 (≈ 1270 µM) |  |  |  |  |  | 
